# Experimental data as given in patent US11123413B2, “Carbapenemases for use with antibiotics for the protection of the intestinal microbiome” (priority 2015, dated 2021).
# Where “and” joins values, the source holds several entries; their conditions need not be identical. Equal entries are not always repeated.
# Key:
# [1] = test system: gut microbiome; design: species or system Yorkshire piglets; settings: in vivo
# Method: The animals were treated with ertapenem (30 mg/kg) via intravenous infusion one a day for a total of 7 days.
# Two pre-treatment fecal samples were obtained, the first 4 days after the animals arrived at the animal treatment facility (Day −7), and the second 7 days after arrival (Day −4). An additional 3 fecal samples were collected at Day 4, Day 8, and Day 9. The fecal samples were collected using the OMNIgene GUT sample collection kits (OMR-200, DNA Genotek, Ontario, Canada) and stored at room temperature away from light until all samples were collected. DNA isolated from the fecal samples was subjected to deep sequencing of the intestinal microbiome and analyses.
# DNA was isolated from the fecal samples and subjected to whole genome shotgun sequencing using an Illumine HiSeq system with a target of 20 million 100 bp single reads per sample. […]
# The percent similarity based on the relative bacterial strain abundance was calculated. […] Animals began ertapenem treatment on Day 1 and the percent similarity decreased every day the animals were evaluated. […]
# A statistical analysis was performed to determine the probability that the microbiomes before and after antibiotic treatment remained the same or were different. The microbiome sequence data were analyzed using a parameterization of the Dirichlet-Multinomial distribution (La Rosa et al., 2012) to perform a Likelihood Ratio Test. […]
# [2] = Oral P2A and intravenous meropenem in jejunal-fistulated dogs; format: in vivo, laboratory beagles; settings: peak level in dog jejunum; meropenem 30 mg/kg IV alone; individual dogs
# Method: The ability of P2A to degrade meropenem in the dog intestinal tract was evaluated using laboratory beagles that had permanent jejunal fistulas. The fistulas allowed the repeated collection of jejunal chyme specimens from these animals. Dogs were treated with peroral P2A (1 mg/kg) in a liquid formulation (PBS buffer), and/or intravenous meropenem (30 mg/kg). Serum samples were collected and serum meropenem levels quantified. Jejunal chyme samples were collected and meropenem and P2A levels were quantified. Meropenem levels in serum and chyme were measured using a plate diffusion method using meropenem susceptible Micrococcus luteus TS504 as the test strain. P2A activity levels in chyme were determined spectrophotometrically using meropenem as a substrate. Meropenem hydrolysis was monitored at a wavelength of 297 nm.
Meropenem [2],Compound,microbiome diversity (percent similarity of strain relative abundance) [1]
,C[C@@H](O)[C@H]1C(=O)N2C(C(=O)O)=C(S[C@@H]3CN[C@H](C(=O)Nc4cccc(C(=O)O)c4)C3)[C@H](C)[C@H]12 [ertapenem],causes a loss of diversity in the microbiome
3.0 ug/ml (2×) and 3.2 ug/ml,C[C@@H](O)[C@H]1C(=O)N2C(C(=O)O)=C(S[C@@H]3CN[C@H](C(=O)N(C)C)C3)[C@H](C)[C@H]12 [Meropenem],
